Common to all, as to format: cell-based, human
The subject of test [1] is RPMI8226 cells. The experiment in a line: IC50 of bortezomib and ATBL in RPMI8226 cells. As to conditions: for IC50: read-out: half maximal inhibitory concentration (IC50). How it is done:
CAG, U266 and RPMI8226 human MM cells; (American Type Culture Collection; ATCC); KMS-11 (originally from the Japanese Collection of Research Bioresource); human MM cells and MPC-11 murine myeloma cell line (kindly provided by Professor Ralph Sanderson, University of Alabama, USA) and HL60 human acute myeloid leukemia (ATCC) were used. Cells were cultured in RPMI-1640 medium supplemented with 10% fetal bovine serum (FBS), supplemented with 1% L-glutamine, 1% sodium pyruvate and 1% pen-strep-neomycin. All cells were cultured at 37° C. in 5% CO2 for no more than 6 months after being thawed from the authentic stocks.
The half maximal inhibitory concentration (IC50) of bortezomib and ATBL was evaluated in RPMI8226 cells.

In another test the test system is CAG cells. Put plainly: Apoptosis assay (7AAD and Annexin V, flow cytometry). As to conditions: 48 h; compared to other treatments tested. The method, then: (§1) In another experiment cells were incubated with 10% plasma obtained from vehicle-treated mice, bortezomib-treated mice (at the 24 h time-point) or ATBL-treated mice at 24, 72 and 168 h time-point post administration. Then cell viability and apoptosis status; healthy, early apoptosis, late apoptosis and dead, were determent using 7AAD and Annexin V staining and were used in accordance with the manufacturer's instruction. At least 50,000 events were acquired using a LSRFortessa flow cytometer (BD) and analyzed with FlowJo 10.
(§2) To determine the therapeutic effect of ATBL compared to free bortezomib, a cell viability and apoptosis assay was used. To this end, CAG and RPMI8226 cells were treated with ATBL, bortezomib in naked liposomes, free bortezomib, AMD on empty liposomes, free AMD, empty naked liposomes and vehicle. […] However, the inventors hypothesized that in an in vivo model, ATBL will have better therapeutic efficacy due to its targeting properties.

Test [2] has as its system RPMI8226 cells. The description is as above. To be noted: 48 h; compared to other treatments tested. The method, then: as §1, §2

Read-outs that look alike come from different tables or passages of the source.

Turning to `CC(C)C[C@H](NC(=O)[C@H](Cc1ccccc1)NC(=O)c1cnccn1)B(O)O` [bortezomib, [(1R)-3-methyl-1-[[(2S)-3-phenyl-2-(pyrazine-2-carbonylamino)propanoyl]amino]butyl]boronic acid], the IC50 was 11 nM in the test with RPMI8226 cells [1] (Homo sapiens, RPMI-8226, RPMI8226 cells) and 9.13 nM with RPMI8226 cells [1] (RPMI8226 cells). For the same compound, the “IC50 of bortezomib relative to ATBL” value with RPMI8226 cells [1] (RPMI8226 cells) was about 2 fold. Also, the late apoptosis entry in the test with CAG cells and in the test on RPMI8226 cells [2] was “significant higher late apoptosis” each time.

The record behind these values is patent US20260224733A1, “NANOPARTICLES DIRECTED TO CXCR4 AND USE THEREOF” (TECHNION RESEARCH & DEVELOPMENT FOUNDATION LIMITED, priority 2023, published 2026).
